According to the METLIN SMRT retention time set (Domingo-Almenara et al. 2019):

test: gradient 5% acetonitrile 3 min, to 50% in 2 min, to 85% in 15 min, held 3 min, 100 µL/min; details: column: Zorbax Extend-C18 2.1 x 50 mm; eluents: water / acetonitrile, 0.1% formic acid
Method in brief: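 Values are retention times taken from adduct peaks that software picked and an analyst inspected. The pure standards were run as mixtures of ~100 molecules on HPLC linked to a quadrupole time-of-flight mass spectrometer, in positive and negative ionization mode. A Zorbax Extend-C18 column (2.1 × 50 mm, 1.8 μm) was used at 100 μL/min with water and acetonitrile, each including 0.1% formic acid.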

**Q.** For Cc1cc(OCCCS(C)(=O)=O)cc(C)c1-c1cccc(COc2ccc3c(c2)OC[C@H]3CC(=O)O)c1, which RP-LC retention time is on record?
**A.** 1040 s

**Q.** For Cc1ccc(-c2noc(-c3cccc(S(=O)(=O)Nc4ccccn4)c3)n2)cc1, which RP-LC retention time is on record?
**A.** 935 s

**Q.** With Cc1[nH]c(=O)[nH]c(=O)c1CC(=O)N1CCN(c2cccc(Cl)c2Cl)CC1 as the compound, how does the RP-LC retention time read?
**A.** 654 s

**Q.** For COc1ccc(S(=O)(=O)N2CCCC(C(=O)Nc3cccc(C)c3)C2)cc1Cl (stereo not given), which RP-LC retention time is on record?
**A.** 1060 s

**Q.** For O=C(CCC1CCCC1)NCCC1CCN(C(=O)Nc2cc(F)cc(F)c2)CC1, which RP-LC retention time is on record?
**A.** 971 s

**Q.** With COC(=O)CNC(=O)N1CCCC1c1cccc(C)c1 (stereo not given) as the compound, how does the RP-LC retention time read?
**A.** 734 s

**Q.** Which RP-LC retention time does the source give for CCN(CC)c1nc2ccsc2c(=O)n1CCC(=O)NCc1ccc(F)cc1 here?
**A.** 831 s

**Q.** For COC(=O)c1cc(C2CC2)nc2c1c(=O)n(Cc1cccc(Cl)c1)c(=O)n2C, which RP-LC retention time is on record?
**A.** 1160 s

**Q.** For CCOc1ccc(/C=C/c2nc3ccccc3n(C)c2=O)cc1, which RP-LC retention time is on record?
**A.** 933 s

**Q.** For Cc1cccc(-c2nc(Cn3ccnc3)no2)c1, which RP-LC retention time is on record?
**A.** 600 s

**Q.** With CN1CCN(C(=O)Nc2ccc([N+](=O)[O-])cc2)CC1 as the compound, how does the RP-LC retention time read?
**A.** 634 s

**Q.** Which RP-LC retention time does the source give for Cc1cc(N2CCN(C)CC2)nc2ccc(NC(=S)NCc3ccc(F)cc3Cl)cc12 here?
**A.** 612 s

**Q.** Which RP-LC retention time does the source give for Cc1ccc(NC(=O)Cn2c(N)nc(C)c(C)c2=O)c(C)c1 here?
**A.** 608 s

**Q.** With CCc1ccc(S(=O)(=O)N2CCC3(CC2)C(=O)N(CC)c2ccccc23)cc1 as the compound, how does the RP-LC retention time read?
**A.** 1140 s

**Q.** With O=C(CN1C(=O)COc2ccc(Cl)cc21)NCC(=O)N1CCCc2ccccc21 as the compound, how does the RP-LC retention time read?
**A.** 862 s

**Q.** With O=C1NC2CCCCC2C2=NC(CN3CCN(c4ccccc4)CC3)CN12 (stereo not given) as the compound, how does the RP-LC retention time read?
**A.** 655 s

**Q.** For CCCN1C(=O)c2c(C(=O)NCCc3ccccc3)ncn2CC1(C)C(=O)NCCC(C)C (stereo not given), which RP-LC retention time is on record?
**A.** 891 s

**Q.** For O=C(Cn1c(=O)n(-c2ccc(F)cc2)c2ncccc21)NCCN1CCCCC1, which RP-LC retention time is on record?
**A.** 592 s

**Q.** Which RP-LC retention time does the source give for CCc1ccc(S(=O)(=O)N2CCc3c(c(-c4nnc(-c5ccccc5F)o4)nn3C)C2)cc1 here?
**A.** 1040 s

**Q.** Which RP-LC retention time does the source give for O=C(NCc1csc(C2CCN(C(=O)c3ccc(F)cc3F)CC2)n1)C1CC1 here?
**A.** 697 s

**Q.** For CC(=O)Nc1cccc2c(C(=O)NC(C)c3ccc(C)cc3C)ccnc12 (stereo not given), which RP-LC retention time is on record?
**A.** 896 s

**Q.** With O=C(NCCN1CCCCCC1)C1CCCN(c2nn3c(=O)c4c(nc3s2)CCCC4)C1 (stereo not given) as the compound, how does the RP-LC retention time read?
**A.** 608 s

**Q.** For CS(=O)(=O)c1ccc(C(=O)Nc2cccc(Cl)c2Cl)cc1, which RP-LC retention time is on record?
**A.** 791 s

**Q.** With CCOc1ccc(NS(=O)(=O)c2cc(C(=O)Nc3ccc(Br)cc3)n[nH]2)cc1 as the compound, how does the RP-LC retention time read?
**A.** 927 s

**Q.** Which RP-LC retention time does the source give for Cn1c(=O)c2c(-c3cccc(Br)c3)n(Cc3ccco3)cc2n(C)c1=O here?
**A.** 971 s

**Q.** Which RP-LC retention time does the source give for CC(C)CC(=O)N1CCN(c2nc(CN3CCOCC3)cs2)CC1 here?
**A.** 590 s

**Q.** For CCN(CC)CCNC(=O)c1sc2ncn(CC(=O)N3CC(C)CC(C)C3)c(=O)c2c1C (stereo not given), which RP-LC retention time is on record?
**A.** 658 s

**Q.** For COc1ccc(-c2nc3nc(C)cc(C)n3c2Nc2ccccc2C)cc1, which RP-LC retention time is on record?
**A.** 742 s

**Q.** For COc1cc(S(=O)(=O)NCc2ccccc2)c(OC)cc1Br, which RP-LC retention time is on record?
**A.** 867 s

**Q.** With Cc1nc2cc(-c3noc(-c4ccc(F)cc4)n3)ccc2n(C)c1=O as the compound, how does the RP-LC retention time read?
**A.** 1030 s

**Q.** For Cc1csc(NC(=O)c2ccc(N3CCCC3)nn2)n1, which RP-LC retention time is on record?
**A.** 626 s

**Q.** For Cc1csc(-c2cc(S(=O)(=O)Nc3cccc(Cl)c3)c(C)s2)n1, which RP-LC retention time is on record?
**A.** 1060 s

**Q.** With COc1ccc(NC(=O)c2ccc3c(c2)OCCO3)c([N+](=O)[O-])c1 as the compound, how does the RP-LC retention time read?
**A.** 874 s

**Q.** Which RP-LC retention time does the source give for CCN1C(=O)COc2ccc(-c3csc(NC(=O)c4ccco4)n3)cc21 here?
**A.** 840 s

**Q.** With CSc1ccc(-c2nc3ccc(C)cn3c2Nc2ccc3c(c2)OCO3)cc1 as the compound, how does the RP-LC retention time read?
**A.** 739 s

**Q.** For CC(C)c1cc(N2CCN(C(=O)C3CC3)CC2)nc2nncn12, which RP-LC retention time is on record?
**A.** 586 s

**Q.** With CN1CCN(CCCNC(=O)CN2C(=O)C3CCCCN3c3ccc(C(=O)N4CCCC4)cc32)CC1 (stereo not given) as the compound, how does the RP-LC retention time read?
**A.** 579 s

**Q.** Which RP-LC retention time does the source give for O=C(c1cccc(F)c1)N1CCC2(CC1)N=C(c1ccc(Cl)cc1)NO2 here?
**A.** 800 s

**Q.** Which RP-LC retention time does the source give for COc1ccc(Cn2c(=O)c3sccc3n(Cc3nc(-c4ccc(F)c(Cl)c4)no3)c2=O)cc1 here?
**A.** 1190 s

**Q.** For O=C(CCc1c(-c2ccc(F)cc2)nc2ccccn12)Nc1ccccc1C(F)(F)F, which RP-LC retention time is on record?
**A.** 691 s

**Q.** For Cc1ccc(-c2nc3ncccn3c2Nc2ccc3c(c2)OCCO3)cc1, which RP-LC retention time is on record?
**A.** 684 s

**Q.** Which RP-LC retention time does the source give for COc1ccc(NC(=O)Nc2nccn(-c3ccc(Cl)cc3)c2=O)cc1OC here?
**A.** 854 s

**Q.** For CCn1nc(C)c(CCNC(=O)CCCn2c(=O)c3cccn3c3ccc(Br)cc32)c1C, which RP-LC retention time is on record?
**A.** 730 s

**Q.** For Cc1noc(C)c1CCNC(=O)CCCn1c2ccccc2c2cnn(C)c(=O)c21, which RP-LC retention time is on record?
**A.** 713 s

**Q.** With Cc1ccc(C)c(CSc2nnc3c(S(=O)(=O)N4CCCC4)cccn23)c1 as the compound, how does the RP-LC retention time read?
**A.** 893 s

**Q.** With CC(C(=O)N1CCN(Cc2ccc3c(c2)OCO3)CC1)n1c2ccccc2c2cnn(C)c(=O)c21 (stereo not given) as the compound, how does the RP-LC retention time read?
**A.** 669 s

**Q.** For CCOc1ccc2nc(NC(=O)C3CCN(S(=O)(=O)c4cn(C(C)C)cn4)CC3)sc2c1, which RP-LC retention time is on record?
**A.** 829 s

**Q.** For CCC(C(=O)NCCc1c[nH]c2ccccc12)n1c2ccccc2c2cnn(C)c(=O)c21 (stereo not given), which RP-LC retention time is on record?
**A.** 916 s

**Q.** With CC(C)N1C(=O)c2cccnc2Sc2cc(NC(=O)Cc3ccc(Cl)cc3)ccc21 as the compound, how does the RP-LC retention time read?
**A.** 954 s

**Q.** With Cc1ccc(-c2nc(-c3ccc4c(c3)oc(=O)n4C)no2)cc1C as the compound, how does the RP-LC retention time read?
**A.** 1180 s

**Q.** With Cc1cc(N2CCN(S(=O)(=O)c3ccc(F)c(F)c3)CC2)nc(N2CCCC2)n1 as the compound, how does the RP-LC retention time read?
**A.** 720 s

**Q.** For CCOCCCNC(=O)N1CCC(c2cc(N)on2)CC1, which RP-LC retention time is on record?
**A.** 601 s

**Q.** With N#Cc1cccc(CN2C[C@@H]3C(=O)N(CCc4ccccc4)C(=O)[C@@H]3C2)c1 as the compound, how does the RP-LC retention time read?
**A.** 849 s

**Q.** With C=CCNC(=O)c1cc(C)nc2c(C)cc(C)cc12 as the compound, how does the RP-LC retention time read?
**A.** 644 s

**Q.** With O=C(NC1CC1)c1ccc(OCC2CCN(C(=O)c3ccc(Cl)cc3)CC2)cc1 as the compound, how does the RP-LC retention time read?
**A.** 850 s

**Q.** With O=C(CSc1nccn1Cc1ccc2c(c1)OCO2)Nc1ccccc1F as the compound, how does the RP-LC retention time read?
**A.** 621 s

**Q.** For Cc1ccc(-n2nc3c(=O)n(CCCC(=O)NCc4ccc(C)o4)nc(C)c3c2C)cc1, which RP-LC retention time is on record?
**A.** 817 s

**Q.** For O=S(=O)(c1ccc2c(c1)CCC2)N1CCCn2nc(-c3cccs3)cc2C1, which RP-LC retention time is on record?
**A.** 1060 s

**Q.** With CCCN1C(=O)Cc2ccccc2C1C(=O)NCCOC (stereo not given) as the compound, how does the RP-LC retention time read?
**A.** 641 s

**Q.** With O=C(CCCc1nc2cccnc2n1Cc1ccc(F)cc1)N1CCN(c2ccccn2)CC1 as the compound, how does the RP-LC retention time read?
**A.** 606 s

**Q.** Which RP-LC retention time does the source give for Cc1nnsc1C(=O)N1CCC2(CC1)OCCN2S(=O)(=O)c1ccc(Cl)cc1 here?
**A.** 817 s

**Q.** With COc1cc([N+](=O)[O-])cc2sc(NC(=O)c3cc(=O)c4ccccc4o3)nc12 as the compound, how does the RP-LC retention time read?
**A.** 877 s

**Q.** For Cc1ccc(C(=O)N2CCCn3cc(-c4cccc(C#N)c4)nc32)cn1, which RP-LC retention time is on record?
**A.** 636 s

**Q.** For CN(C)C1CCCN(Cc2c(F)cccc2Cl)C1=O (stereo not given), which RP-LC retention time is on record?
**A.** 604 s

**Q.** For CCn1c(=O)sc2cc(S(=O)(=O)N3CCC(C(=O)Nc4cc(C)cc(C)c4)CC3)ccc21, which RP-LC retention time is on record?
**A.** 932 s
